Assay results reported in patent US20120220604A1, “PIPERAZINYL-ALKYL-BENZOIMIDAZOL-2-ONE DERIVATIVES AND THEIR USE AS MONOAMINE NEUROTRANSMITTER RE-UPTAKE INHIBITORS” (NeuroSearch A/S, priority 2009, published 2012).
Where a name gives a salt, the structure may show the parent alone.

Experiments:
[1] = target: T1, reuptake of serotonine (5-HT) in synaptosomes (Rattus norvegicus, UniProt P31652); test: Inhibition of 5-HT reuptake in synaptosomes; type: biochemical; conditions: 3H-5-HT, read-out: 5-HT-uptake IC50
T1 construct: in synaptosomes as described in WO 97/16451 (NeuroSearch A/S); from tissue
Description: (§1) Compounds of the invention may be tested for their ability to inhibit reuptake of the monoamines dopamine, noradrenaline and serotonin in synaptosomes e.g. such as described in WO 97/30997 (NeuroSearch A/S) or WO 97/16451 (NeuroSearch A/S). Based on the balanced activity observed in these tests the compound of the invention is considered useful for the treatment, prevention or alleviation of a disease or a disorder or a condition of a mammal, including a human, which disease, disorder or condition is responsive to inhibition of monoamine neurotransmitter re-uptake in the central nervous system.
(§2) Compounds were tested for their ability to inhibit the reuptake of the monoamine neurotransmitters dopamine (DA) noradrenaline (NA) and serotonine (5-HT) in synaptosomes as described in WO 97/16451 (NeuroSearch A/S).
(§3) The test values are given as IC50 (the concentration (μM) of the test substance which inhibits the specific binding of ^3H-DA, ^3H-NA, or ^3H-5-HT by 50%).

[2] = target: T2, reuptake of dopamine (DA) in synaptosomes (Rattus norvegicus, UniProt P23977); test: Inhibition of dopamine reuptake in synaptosomes; type: biochemical; conditions: 3H-DA, read-out: DA-uptake IC50
T2 construct: in synaptosomes as described in WO 97/16451 (NeuroSearch A/S); from tissue
Description: as §1, §2, §3

[3] = target: T3, reuptake of noradrenaline (NA) in synaptosomes (Rattus norvegicus, UniProt Q63380); test: Inhibition of noradrenaline reuptake in synaptosomes; type: biochemical; conditions: 3H-NA, read-out: NA-uptake IC50
T3 construct: in synaptosomes as described in WO 97/16451 (NeuroSearch A/S); from tissue
Description: as §1, §2, §3

T2 sequence (P23977 whole entry): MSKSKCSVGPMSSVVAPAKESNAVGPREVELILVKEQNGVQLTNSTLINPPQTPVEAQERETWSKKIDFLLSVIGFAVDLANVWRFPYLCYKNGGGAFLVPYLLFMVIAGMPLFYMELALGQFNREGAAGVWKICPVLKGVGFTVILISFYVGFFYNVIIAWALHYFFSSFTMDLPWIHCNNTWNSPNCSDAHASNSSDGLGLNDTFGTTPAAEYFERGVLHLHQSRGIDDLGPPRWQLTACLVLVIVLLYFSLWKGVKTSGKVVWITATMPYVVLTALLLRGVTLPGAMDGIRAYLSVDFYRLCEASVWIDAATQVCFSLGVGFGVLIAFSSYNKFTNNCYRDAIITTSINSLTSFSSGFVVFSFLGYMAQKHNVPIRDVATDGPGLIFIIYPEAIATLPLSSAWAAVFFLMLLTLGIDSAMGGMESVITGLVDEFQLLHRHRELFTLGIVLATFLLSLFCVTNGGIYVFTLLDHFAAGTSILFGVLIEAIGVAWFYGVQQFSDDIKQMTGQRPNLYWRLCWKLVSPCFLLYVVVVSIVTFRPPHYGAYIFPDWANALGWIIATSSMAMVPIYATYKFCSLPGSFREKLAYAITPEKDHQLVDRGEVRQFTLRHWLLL
T1 sequence (P31652 whole entry): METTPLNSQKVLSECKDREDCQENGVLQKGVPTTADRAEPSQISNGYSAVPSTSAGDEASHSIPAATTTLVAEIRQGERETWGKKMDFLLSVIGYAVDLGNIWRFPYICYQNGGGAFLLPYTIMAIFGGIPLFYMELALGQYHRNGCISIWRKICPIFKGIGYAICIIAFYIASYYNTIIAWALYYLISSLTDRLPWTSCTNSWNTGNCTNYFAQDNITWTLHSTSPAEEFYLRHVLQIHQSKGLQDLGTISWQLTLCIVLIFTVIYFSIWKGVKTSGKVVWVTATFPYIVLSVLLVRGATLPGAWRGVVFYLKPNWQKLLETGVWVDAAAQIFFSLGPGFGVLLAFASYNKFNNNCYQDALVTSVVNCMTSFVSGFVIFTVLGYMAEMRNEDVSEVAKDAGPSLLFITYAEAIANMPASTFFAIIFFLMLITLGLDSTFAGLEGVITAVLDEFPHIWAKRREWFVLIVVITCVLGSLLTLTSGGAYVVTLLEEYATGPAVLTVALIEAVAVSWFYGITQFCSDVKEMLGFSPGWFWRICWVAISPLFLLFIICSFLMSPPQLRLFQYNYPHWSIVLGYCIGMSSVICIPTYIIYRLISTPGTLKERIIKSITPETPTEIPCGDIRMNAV
T3 sequence (Q63380 1-617): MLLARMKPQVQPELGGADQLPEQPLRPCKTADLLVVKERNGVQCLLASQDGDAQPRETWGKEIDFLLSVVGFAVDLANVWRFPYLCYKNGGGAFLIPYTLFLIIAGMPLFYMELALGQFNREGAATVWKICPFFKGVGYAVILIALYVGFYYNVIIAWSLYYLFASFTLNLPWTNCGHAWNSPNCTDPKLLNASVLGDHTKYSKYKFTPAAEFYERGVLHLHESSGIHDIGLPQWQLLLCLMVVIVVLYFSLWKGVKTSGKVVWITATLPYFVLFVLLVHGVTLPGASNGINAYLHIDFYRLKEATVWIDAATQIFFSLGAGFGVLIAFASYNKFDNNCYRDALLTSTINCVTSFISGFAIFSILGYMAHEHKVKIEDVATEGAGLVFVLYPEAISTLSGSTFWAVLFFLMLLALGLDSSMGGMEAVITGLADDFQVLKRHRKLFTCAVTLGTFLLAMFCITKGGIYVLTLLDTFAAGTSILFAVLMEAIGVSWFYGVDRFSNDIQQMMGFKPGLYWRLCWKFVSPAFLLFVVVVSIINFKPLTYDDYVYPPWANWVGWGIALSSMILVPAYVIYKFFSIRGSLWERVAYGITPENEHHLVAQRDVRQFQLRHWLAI

## O=c1n(CCN2CCN(c3ccc4[nH]ccc4c3)CC2)c2ccccc2n1C1=CCCCC1 (as salt: fumaric acid salt) [Compound A7, 1-Cyclohex-1-enyl-3-{2-[4-(1H-indol-5-yl)-piperazin-1-yl]-ethyl}-1,3-dihydro-benzoimidazol-2-one]
other
  melting point: 92 to 94 °C

## C=C(C)n1c(=O)n(CCN2CCN(c3ccc4[nH]ccc4c3)CC2)c2ccccc21 (as salt: fumaric acid salt) [Compound A8, 1-{2-[4-(1H-Indol-5-yl)-piperazin-1-yl]-ethyl}-3-isopropenyl-1,3-dihydro-benzoimidazol-2-one]
other
  melting point: 112 to 114 °C

## C=C(C)n1c(=O)n(CCN2CCN(c3ccc4c(ccn4C)c3)CC2)c2ccccc21 [Compound A1, 1-Isopropenyl-3-{2-[4-(1-methyl-1H-indol-5-yl)-piperazin-1-yl]-ethyl}-1,3-dihydro-benzoimidazol-2-one]
[1]
  IC50: 0.014 µM
[2]
  IC50: > 1 µM
[3]
  IC50: 0.61 µM

## Cn1ccc2cc(N3CCN(CCn4c(=O)n(C5=CCCCC5)c5ccccc54)CC3)ccc21 [Compound A2, 1-Cyclohex-1-enyl-3-{2-[4-(1-methyl-1H-indol-5-yl)-piperazin-1-yl]-ethyl}-1,3-dihydro-benzoimidazol-2-one]
[1]
  IC50: 0.0081 µM
[2]
  IC50: 1.1 µM
[3]
  IC50: 3 µM

## Cn1ccc2ccc(N3CCN(CCn4c(=O)n(C5=CCCCC5)c5ccccc54)CC3)cc21 [Compound A3, 1-Cyclohex-1-enyl-3-{2-[4-(1-methyl-1H-indol-6-yl)-piperazin-1-yl]-ethyl}-1,3-dihydro-benzoimidazol-2-one]
[1]
  IC50: 0.0033 µM
[2]
  IC50: 1.7 µM
[3]
  IC50: 1.1 µM

## C=C(C)n1c(=O)n(CCN2CCN(c3ccc4ccn(C)c4c3)CC2)c2ccccc21 [Compound A4, 1-Isopropenyl-3-{2-[4-(1-methyl-1H-indol-6-yl)-piperazin-1-yl]-ethyl}-1,3-dihydro-benzoimidazol-2-one]
[1]
  IC50: 0.0048 µM
[2]
  IC50: 1.3 µM
[3]
  IC50: 0.062 µM

## C=C(C)n1c(=O)n(CCN2CCN(c3ccc4cc[nH]c4c3)CC2)c2ccccc21 [Compound A5]
[1]
  IC50: 0.0039 µM
[2]
  IC50: 1.3 µM
other
  melting point: 195 to 197 °C
[3]
  IC50: 0.11 µM

## O=c1n(CCN2CCN(c3ccc4cc[nH]c4c3)CC2)c2ccccc2n1C1=CCCCC1 [Compound A6, 1-Cyclohex-1-enyl-3-{2-[4-(1H-indol-6-yl)-piperazin-1-yl]-ethyl}-1,3-dihydro-benzoimidazol-2-one]
[1]
  IC50: 0.0044 µM
[2]
  IC50: 0.027 µM
other
  melting point: 171 to 173 °C
[3]
  IC50: 0.16 µM

## O=c1n(CCN2CCN(c3ccc4[nH]ccc4c3)CC2)c2ccccc2n1C1=CCCCC1 [Compound A7, 1-Cyclohex-1-enyl-3-{2-[4-(1H-indol-5-yl)-piperazin-1-yl]-ethyl}-1,3-dihydro-benzoimidazol-2-one]
[1]
  IC50: 0.19 µM
[2]
  IC50: 2.3 µM
[3]
  IC50: 1.2 µM

## C=C(C)n1c(=O)n(CCN2CCN(c3ccc4[nH]ccc4c3)CC2)c2ccccc21 [Compound A8, 1-{2-[4-(1H-Indol-5-yl)-piperazin-1-yl]-ethyl}-3-isopropenyl-1,3-dihydro-benzoimidazol-2-one]
[1]
  IC50: 0.34 µM
[2]
  IC50: > 1 µM
[3]
  IC50: 0.29 µM
